The record followed here is ChEMBL document CHEMBL1201862, “PubChem BioAssay data set” (2004).

Test [1] can be described thus: activation of miR-122 Renilla sensor silencing – cell-based, Huh7 psiCHECK-miR122, Renilla luciferase, cherry-picked, dose response (AID 651956).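 Further: huh7 hepatoma cells stably carrying a psiCHECK-2 miR-122 sensor plasmid; renilla luciferase signal reporting endogenous miR-122 activity after 48 h compound exposure.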 The test is classed as functional.
Test [2] in a line: DRD fibroblast viability loss – cell-based, non-viral oncogenic, luminescence, dose response (AID 1934). It counts as functional. The note with it: Homo sapiens.
Test [3] relates to BJ. Put plainly: BJ-TERT fibroblast viability loss – cell-based, RAS-independent, luminescence, dose response (AID 1933). It counts as functional. To be noted: Homo sapiens.
In test [4] the test system is BJ. Put plainly: BJ-TERT-LT-ST fibroblast viability loss – cell-based, RAS-independent, luminescence, dose response (AID 1935).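 Further: BJ fibroblasts immortalized with TERT plus LT and ST oncogenes.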 The test is classed as functional. The note with it: Homo sapiens.
Test [5] deals with DNA repair and recombination protein RAD54-like (Homo sapiens, UniProt Q92698). Put plainly: RAD54 Holliday junction migration blockers – biochemical, fluorescence, cherry-picked samples, dose series, confirmation (AID 651657). It counts as functional.
The test system of test [6] is H4. Put plainly: Luminescence Cell-Based Dose Response HTS to Identify Activators of 5'UTR Stem-Loop Driven Prion Protein mRNA Translation in H4 Neuroglioblastoma Cells. [Related pubchem assays: 1829 (Project Summary), 1814 (Primary HTS)]. It counts as functional. The note with it: Homo sapiens.
The nature of test [7]: Luminescence Cell-Based Dose Response HTS to Identify Activators of Luciferase Translation or Activity in H4 […] Cells. [Related pubchem assays: 1829 (Project Summary), 1814 (Primary HTS)]. It counts as functional.
Test [8] deals with BJ. In words: cells. It counts as functional, cell-based. The note with it: Homo sapiens.
Test [9] is described as follows: NIH3T3 cell viability loss – ATP luminescence, mouse fibroblasts, counter-screen, dose response (AID 2010).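 Further: cells exposed to compound for about 90 hours before reading.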 The test is classed as functional, cell-based. (The purpose of a counterscreen is to sort out artefacts and off-target activity.)
Test [10] can be described thus: Luminescence Cell-Based Dose Confirmation HTS to Identify Activators of 5'UTR Stem-Loop Driven Alpha-Synuclein mRNA Translation in H4 Neuroglioblastoma Cells. [Related pubchem assays: 1829 (Project Summary), 1814 (Primary HTS)]. The test is classed as functional.
Test [11] deals with T1, DNA repair protein RAD52 homolog (Homo sapiens, UniProt P43351).
T1 sequence (P43351 whole entry): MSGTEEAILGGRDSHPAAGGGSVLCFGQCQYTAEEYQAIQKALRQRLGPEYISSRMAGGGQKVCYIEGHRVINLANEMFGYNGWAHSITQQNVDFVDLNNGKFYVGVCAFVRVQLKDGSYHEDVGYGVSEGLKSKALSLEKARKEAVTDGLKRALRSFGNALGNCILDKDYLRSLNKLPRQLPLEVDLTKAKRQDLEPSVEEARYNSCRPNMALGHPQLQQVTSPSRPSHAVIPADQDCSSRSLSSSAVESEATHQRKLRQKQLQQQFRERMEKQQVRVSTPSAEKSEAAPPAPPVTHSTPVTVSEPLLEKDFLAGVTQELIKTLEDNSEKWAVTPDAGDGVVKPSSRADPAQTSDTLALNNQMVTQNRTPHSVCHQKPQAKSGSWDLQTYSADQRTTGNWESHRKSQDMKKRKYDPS
The test is classed as functional, biochemical.

Test [12] can be described thus: cytotoxicity toward MDA-MB-231 breast cancer cells – cell-based, CellTiter-Glo luminescence, cherry-pick, cytotoxicity control for RAD54 inhibitor project, dose response (AID 651692). The test is classed as functional. A general note: ATP-based viability assays read luminescence as a measure of living cells.
Test [13] can be described thus: cells. The test is classed as functional, cell-based.
Test [14] is described as follows: Trypanosoma cruzi growth suppression in host cells – NIH3T3 host cells, beta-gal luminescence, confirmation (AID 2044).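 Further: intracellular parasites grown in NIH/3T3 mouse fibroblasts as host cells; luminescent beta-galactosidase reporter signal from transgenic T. cruzi replicating inside host cells; inhibitors lower the luminescence signal.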 It counts as functional, cell-based.
Test [15] can be described thus: cells. The test is classed as functional, cell-based. This is another data set of the same source.
Test [16] concerns the target T2, Fatty acid synthase (Homo sapiens, UniProt P49327). In words: inhibition of human FAS-TE enzyme activity – biochemical, endpoint fluorescence intensity, uHTS hits, dose response (AID 624327).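 Further: fluorescence from hydrolysis of an O-methyl fluorescein acyl ester substrate by the enzyme.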 The test is classed as functional.
The target in test [17] is Palmitoyl-protein thioesterase ABHD10, mitochondrial (Mus musculus, UniProt Q6PE15). In words: Late stage assay provider results from the probe development effort to identify inhibitors of PME-1: fluorescence-based dose response biochemical gel-based competitive Activity-Based Protein Profiling (ABPP) inhibition of ABHD10 Set 2. It counts as functional.
Test [18] has as its target T2, Fatty acid synthase. In words: inhibition of human FAS-TE enzyme activity – biochemical, kinetic fluorescence intensity, dose response (AID 624326).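 Further: rate of fluorescence rise from hydrolysis of a fluorogenic O-methyl fluorescein ester substrate.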 It counts as functional.
The target in test [19] is Tyrosyl-DNA phosphodiesterase 2 (Homo sapiens, UniProt O95551). Put plainly: potency against TDP2 phosphodiesterase activity – biochemical, epi absorbance, IC50, dose response (AID 743297).
Test [20] in a line: Fluorescence-based cell-based high throughput dose response assay for inhibitors of the interaction of nucleotide-binding oligomerization domain containing 2 (NOD2) and the receptor-interacting serine-threonine kinase 2 (RIPK2). The note with it: Homo sapiens. The test is classed as functional.
For test [21], the target named is Beta Lactamase (Pseudomonas aeruginosa, UniProt Q932Y6). Put plainly: BLA reporter interference, concentration series – BLA reporter cells, FRET fluorescence, artefact control for NOD2-RIPK2 interaction inhibitor project, dose response (AID 651552). It counts as functional, cell-based.
The target of test [22] is Mitochondrial peptide methionine sulfoxide reductase (Bos taurus, UniProt P54149). Put plainly: Absorbance-based biochemical high throughput dose response assay for activators of Methionine sulfoxide reductase A (MsrA). It counts as functional.
The target of test [23] is T3, Sentrin-specific protease 8 (Homo sapiens, UniProt Q96LD8).
T3 sequence (Q96LD8 whole entry): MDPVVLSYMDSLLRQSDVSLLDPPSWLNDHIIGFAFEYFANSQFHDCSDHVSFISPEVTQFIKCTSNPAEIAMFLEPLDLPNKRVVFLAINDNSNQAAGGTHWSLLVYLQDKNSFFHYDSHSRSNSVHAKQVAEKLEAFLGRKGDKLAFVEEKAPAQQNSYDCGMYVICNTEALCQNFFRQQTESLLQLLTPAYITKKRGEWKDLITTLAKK
It counts as functional.

Test [24] relates to INS1. Put plainly: INS-1E survival protection against cytokine death – cell-based, luminescence, retest, dose response (AID 449756).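 Further: cell death triggered by IL-1 beta plus TNF-alpha plus IFN-gamma mixture; protective hits raise ATP signal compared with cytokine alone wells.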 It counts as functional. To be noted: Rattus norvegicus.
Test [25] has as its target T4, Corticotropin-releasing factor receptor 2/Corticotropin-releasing factor-binding protein (Homo sapiens, UniProt P24387+Q13324).
T4 sequence (Q13324 whole entry): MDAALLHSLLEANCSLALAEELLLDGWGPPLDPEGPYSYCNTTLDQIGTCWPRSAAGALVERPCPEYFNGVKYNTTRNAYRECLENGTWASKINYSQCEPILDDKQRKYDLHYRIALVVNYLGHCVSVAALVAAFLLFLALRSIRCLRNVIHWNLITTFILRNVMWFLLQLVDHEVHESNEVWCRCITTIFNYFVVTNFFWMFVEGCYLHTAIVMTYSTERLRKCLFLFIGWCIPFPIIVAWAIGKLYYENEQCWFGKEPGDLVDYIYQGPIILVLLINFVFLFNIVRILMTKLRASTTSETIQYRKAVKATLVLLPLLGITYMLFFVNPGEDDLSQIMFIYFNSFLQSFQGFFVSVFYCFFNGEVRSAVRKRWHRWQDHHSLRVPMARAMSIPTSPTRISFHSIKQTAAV
T4 sequence (P24387 whole entry): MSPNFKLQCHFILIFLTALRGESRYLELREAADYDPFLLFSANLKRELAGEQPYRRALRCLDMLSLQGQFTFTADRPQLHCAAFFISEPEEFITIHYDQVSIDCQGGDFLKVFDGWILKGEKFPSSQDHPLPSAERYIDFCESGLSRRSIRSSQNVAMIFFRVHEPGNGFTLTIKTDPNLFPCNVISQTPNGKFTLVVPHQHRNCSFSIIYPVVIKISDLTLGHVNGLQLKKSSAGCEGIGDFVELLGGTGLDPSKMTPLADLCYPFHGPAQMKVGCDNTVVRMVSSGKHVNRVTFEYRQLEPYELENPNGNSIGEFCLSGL
In words: activators of CRF receptor 2 with binding protein – uHTS hits, confirmation (AID 602473). It counts as functional. To be noted: read-out: EC50_Mean.

Test [26] concerns the target T3, Sentrin-specific protease 8. It counts as functional. This is another data set of the same source.
For test [27], the target named is T5, Low molecular weight phosphotyrosine protein phosphatase (Homo sapiens, UniProt P24666).
T5 sequence (P24666 whole entry): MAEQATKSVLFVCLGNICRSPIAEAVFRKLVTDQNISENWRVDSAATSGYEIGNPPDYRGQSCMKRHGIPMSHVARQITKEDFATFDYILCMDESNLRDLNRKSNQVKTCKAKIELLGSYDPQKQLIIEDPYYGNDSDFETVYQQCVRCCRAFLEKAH
It counts as functional. To be noted: read-out: IC50_Mean.

Test [28] has as its target T5, Low molecular weight phosphotyrosine protein phosphatase. It counts as functional. To be noted: read-out: IC50_Mean. This is another data set of the same source.
Test [29] in a line: blockers of CRF-binding protein–CRF-R2 complex – cell-based, uHTS hits, 384-well, dose response (AID 651639). It counts as functional, Homo sapiens. To be noted: read-out: IC50_Mean.
In test [30] the target is T4, Corticotropin-releasing factor receptor 2/Corticotropin-releasing factor-binding protein. Put plainly: Dose Response confirmation of uHTS hits for small molecule antagonists of the CRF-binding protein and CRF-R2 receptor complex. The test is classed as functional. To be noted: read-out: IC50_Mean.
Test [31] addresses Adenosylmethionine-8-amino-7-oxononanoate aminotransferase (Mycobacterium tuberculosis, UniProt P9WQ81). In words: Mycobacterium tuberculosis BioA enzyme inhibitor Measured in Biochemical System Using Plate Reader - 2163-02_Inhibitor_Dose_CherryPick_Activity. It counts as functional, Mycobacterium tuberculosis UT205.
Test [32] addresses T6, Melanocortin receptor 4 (Homo sapiens, UniProt P32245). Put plainly: inhibitors of MC4R cAMP signaling – cell-based, TR-FRET, biased antagonists, dose response (AID 602298).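 Further: antagonist potency against agonist-stimulated cAMP production.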 It counts as functional.
Test [33] in a line: non-specific 3'UTR reporter inhibition in Clone20-Shn3RL – cell-based, Renilla luciferase, cherry-picked, counter-screen for Shn3 inhibitor project, dose response (AID 624133). It counts as functional.
Test [34] concerns the target T6, Melanocortin receptor 4. The test is classed as functional, cell-based.
A short description of test [35]: reduction of Shn3 3'UTR-driven luciferase in osteoblasts – cell-based, Clone20 osteoblasts, firefly luciferase, cherry-picked, dose response (AID 624132).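 Further: firefly luciferase luminescence from reporter carrying the Shn3 3'UTR in osteoblasts.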 It counts as functional.
The target of test [36] is Hepatocyte nuclear factor 4-alpha (Homo sapiens, UniProt P41235). The test is classed as functional, cell-based.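 Further: biochemical luminescence-based dose-response counterscreen measuring inhibition of HNF4 dimerization, run alongside a screen for blockers of ABHD5–perilipin-5 interaction; split luciferase complementation of HNF4 fusion proteins in cell lysate measuring dimerization.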
Test [37] is described as follows: cAMP pathway inhibition in counterscreen cell line – TR-FRET cAMP detection, counter-screen for MC4R biased antagonist project, dose response (AID 602305).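 Further: U2OS cells stimulated with forskolin near its EC80 as the cAMP inducer; potency is for inhibition of forskolin-stimulated cAMP signaling.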 It counts as functional, cell-based.
A short description of test [38]: loss of viability in HepG2 cells – cell-based, CellTiter-Glo, cherry-picked, cytotoxicity control for Shn3 inhibitor project, dose response (AID 624134). The test is classed as functional.

Active and inactive are the calls of the source. Bounds are passed on as bounds.

T6 sequence (P32245 whole entry): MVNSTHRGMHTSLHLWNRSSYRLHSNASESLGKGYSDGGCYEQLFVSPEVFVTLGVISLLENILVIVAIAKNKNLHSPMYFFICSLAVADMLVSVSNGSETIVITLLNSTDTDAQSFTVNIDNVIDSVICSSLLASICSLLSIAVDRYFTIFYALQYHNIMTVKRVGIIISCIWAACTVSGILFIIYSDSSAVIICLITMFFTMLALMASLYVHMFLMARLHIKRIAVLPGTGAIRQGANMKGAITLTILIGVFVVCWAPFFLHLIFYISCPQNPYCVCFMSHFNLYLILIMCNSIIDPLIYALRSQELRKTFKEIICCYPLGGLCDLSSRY
T2 sequence (P49327 whole entry): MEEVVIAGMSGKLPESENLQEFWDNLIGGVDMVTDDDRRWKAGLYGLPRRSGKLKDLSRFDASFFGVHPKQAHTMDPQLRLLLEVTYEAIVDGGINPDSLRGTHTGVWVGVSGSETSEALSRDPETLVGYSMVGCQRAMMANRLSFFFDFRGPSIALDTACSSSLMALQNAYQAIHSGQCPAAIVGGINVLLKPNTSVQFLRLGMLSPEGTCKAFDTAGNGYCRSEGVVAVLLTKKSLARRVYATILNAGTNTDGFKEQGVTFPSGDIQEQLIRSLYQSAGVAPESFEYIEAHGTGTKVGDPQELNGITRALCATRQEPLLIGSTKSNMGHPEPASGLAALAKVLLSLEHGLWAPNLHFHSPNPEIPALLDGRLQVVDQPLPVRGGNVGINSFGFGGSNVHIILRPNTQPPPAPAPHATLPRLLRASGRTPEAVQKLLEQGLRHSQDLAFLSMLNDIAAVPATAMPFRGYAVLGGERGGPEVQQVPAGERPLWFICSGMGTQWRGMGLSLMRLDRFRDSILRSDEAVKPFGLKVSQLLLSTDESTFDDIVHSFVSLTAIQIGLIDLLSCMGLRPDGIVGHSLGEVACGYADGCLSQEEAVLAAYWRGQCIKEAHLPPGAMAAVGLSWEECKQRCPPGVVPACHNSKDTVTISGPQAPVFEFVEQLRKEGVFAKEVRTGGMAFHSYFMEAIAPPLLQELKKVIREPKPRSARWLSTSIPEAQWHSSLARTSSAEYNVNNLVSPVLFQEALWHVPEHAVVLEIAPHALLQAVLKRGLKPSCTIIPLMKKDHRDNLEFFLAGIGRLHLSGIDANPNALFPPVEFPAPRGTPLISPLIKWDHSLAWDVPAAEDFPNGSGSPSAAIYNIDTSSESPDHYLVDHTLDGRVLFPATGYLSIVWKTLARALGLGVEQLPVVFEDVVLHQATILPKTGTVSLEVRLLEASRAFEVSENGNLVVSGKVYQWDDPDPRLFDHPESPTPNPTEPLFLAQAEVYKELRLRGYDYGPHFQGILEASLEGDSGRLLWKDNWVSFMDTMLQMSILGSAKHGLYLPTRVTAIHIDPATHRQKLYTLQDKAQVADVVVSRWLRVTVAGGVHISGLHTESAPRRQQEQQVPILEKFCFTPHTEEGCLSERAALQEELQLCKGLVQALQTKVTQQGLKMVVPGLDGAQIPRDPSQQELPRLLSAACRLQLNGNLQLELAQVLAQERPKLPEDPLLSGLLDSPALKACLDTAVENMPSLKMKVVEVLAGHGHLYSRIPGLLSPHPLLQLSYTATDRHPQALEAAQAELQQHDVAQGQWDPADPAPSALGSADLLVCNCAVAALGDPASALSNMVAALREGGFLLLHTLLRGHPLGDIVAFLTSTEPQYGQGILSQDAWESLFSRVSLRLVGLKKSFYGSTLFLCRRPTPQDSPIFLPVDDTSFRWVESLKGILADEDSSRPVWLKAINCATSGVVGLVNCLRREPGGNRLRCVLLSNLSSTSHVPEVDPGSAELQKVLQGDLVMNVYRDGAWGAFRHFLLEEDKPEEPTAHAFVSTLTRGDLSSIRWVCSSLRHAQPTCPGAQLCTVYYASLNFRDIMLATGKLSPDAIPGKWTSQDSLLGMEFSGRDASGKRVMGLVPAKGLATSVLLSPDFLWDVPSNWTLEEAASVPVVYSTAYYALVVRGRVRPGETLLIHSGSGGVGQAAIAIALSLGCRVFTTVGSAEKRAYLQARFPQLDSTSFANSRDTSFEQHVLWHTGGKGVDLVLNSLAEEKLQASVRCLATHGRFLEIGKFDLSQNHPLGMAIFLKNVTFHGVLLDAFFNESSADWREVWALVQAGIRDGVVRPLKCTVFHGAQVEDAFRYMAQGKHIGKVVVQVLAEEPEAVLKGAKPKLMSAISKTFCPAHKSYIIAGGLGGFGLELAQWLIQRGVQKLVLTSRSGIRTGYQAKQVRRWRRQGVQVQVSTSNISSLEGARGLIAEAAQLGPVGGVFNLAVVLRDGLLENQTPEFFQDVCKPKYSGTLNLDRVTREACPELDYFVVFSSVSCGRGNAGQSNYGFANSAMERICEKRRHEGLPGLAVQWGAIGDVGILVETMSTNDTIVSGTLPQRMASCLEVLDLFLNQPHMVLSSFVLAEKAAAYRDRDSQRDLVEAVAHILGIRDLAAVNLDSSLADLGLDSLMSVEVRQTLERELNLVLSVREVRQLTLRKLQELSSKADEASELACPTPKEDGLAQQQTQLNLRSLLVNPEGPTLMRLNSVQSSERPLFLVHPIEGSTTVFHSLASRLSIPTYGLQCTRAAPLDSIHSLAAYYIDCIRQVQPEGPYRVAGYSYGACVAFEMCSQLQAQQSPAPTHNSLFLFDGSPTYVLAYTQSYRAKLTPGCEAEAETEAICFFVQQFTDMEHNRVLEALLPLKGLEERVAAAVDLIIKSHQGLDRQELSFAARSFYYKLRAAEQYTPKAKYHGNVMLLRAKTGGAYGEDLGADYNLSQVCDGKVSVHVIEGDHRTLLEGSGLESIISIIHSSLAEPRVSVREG
Sequence of Mitochondrial peptide methionine sulfoxide reductase (P54149 whole entry): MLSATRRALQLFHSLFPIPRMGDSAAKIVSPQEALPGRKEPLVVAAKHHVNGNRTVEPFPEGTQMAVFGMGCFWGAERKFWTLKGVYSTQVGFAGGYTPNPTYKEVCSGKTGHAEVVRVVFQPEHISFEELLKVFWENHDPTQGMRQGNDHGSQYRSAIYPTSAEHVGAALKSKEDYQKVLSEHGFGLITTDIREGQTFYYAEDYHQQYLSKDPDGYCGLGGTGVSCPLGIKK
Sequence of Tyrosyl-DNA phosphodiesterase 2 (O95551 whole entry, the tested form may be a part): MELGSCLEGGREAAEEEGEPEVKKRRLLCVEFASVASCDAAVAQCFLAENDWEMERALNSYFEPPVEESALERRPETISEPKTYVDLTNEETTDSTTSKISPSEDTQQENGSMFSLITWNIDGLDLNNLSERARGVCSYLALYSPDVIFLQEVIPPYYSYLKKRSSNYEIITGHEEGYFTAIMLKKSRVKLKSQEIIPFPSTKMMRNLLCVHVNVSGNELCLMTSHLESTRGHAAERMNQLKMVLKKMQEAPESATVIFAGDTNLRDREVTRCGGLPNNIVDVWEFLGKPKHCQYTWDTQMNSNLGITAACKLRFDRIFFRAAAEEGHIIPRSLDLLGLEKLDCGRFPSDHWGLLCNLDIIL
Sequence of Adenosylmethionine-8-amino-7-oxononanoate aminotransferase (P9WQ81 whole entry): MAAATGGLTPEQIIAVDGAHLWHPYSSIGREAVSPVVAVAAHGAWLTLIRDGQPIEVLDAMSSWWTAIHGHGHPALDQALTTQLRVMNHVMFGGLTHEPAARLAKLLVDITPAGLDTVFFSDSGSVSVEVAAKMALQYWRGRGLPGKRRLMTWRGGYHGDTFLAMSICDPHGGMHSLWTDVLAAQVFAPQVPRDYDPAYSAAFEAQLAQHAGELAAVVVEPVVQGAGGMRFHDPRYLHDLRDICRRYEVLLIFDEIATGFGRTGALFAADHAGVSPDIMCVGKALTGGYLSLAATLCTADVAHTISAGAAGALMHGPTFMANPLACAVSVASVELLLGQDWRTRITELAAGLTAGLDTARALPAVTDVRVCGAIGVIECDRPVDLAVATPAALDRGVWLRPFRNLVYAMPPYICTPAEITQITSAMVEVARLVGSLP
Sequence of DNA repair and recombination protein RAD54-like (Q92698 whole entry): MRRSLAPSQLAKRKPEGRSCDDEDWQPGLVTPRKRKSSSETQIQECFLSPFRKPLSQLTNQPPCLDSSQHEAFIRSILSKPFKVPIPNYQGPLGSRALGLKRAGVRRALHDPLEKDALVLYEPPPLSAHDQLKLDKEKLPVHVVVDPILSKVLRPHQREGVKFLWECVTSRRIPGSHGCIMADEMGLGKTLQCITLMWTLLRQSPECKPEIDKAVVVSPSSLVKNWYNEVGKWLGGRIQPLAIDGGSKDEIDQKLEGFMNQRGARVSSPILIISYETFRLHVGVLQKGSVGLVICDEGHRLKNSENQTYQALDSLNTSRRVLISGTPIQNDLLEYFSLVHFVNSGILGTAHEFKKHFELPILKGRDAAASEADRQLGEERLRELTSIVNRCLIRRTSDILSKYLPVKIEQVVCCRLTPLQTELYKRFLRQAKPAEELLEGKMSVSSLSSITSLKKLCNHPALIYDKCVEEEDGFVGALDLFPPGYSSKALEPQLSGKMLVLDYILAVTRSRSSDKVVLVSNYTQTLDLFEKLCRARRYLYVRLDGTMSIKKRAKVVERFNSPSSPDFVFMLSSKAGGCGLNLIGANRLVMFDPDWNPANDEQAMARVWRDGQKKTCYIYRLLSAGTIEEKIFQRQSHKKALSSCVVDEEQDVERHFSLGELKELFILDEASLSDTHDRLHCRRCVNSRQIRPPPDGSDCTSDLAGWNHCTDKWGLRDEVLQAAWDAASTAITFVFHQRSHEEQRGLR
Sequence of Palmitoyl-protein thioesterase ABHD10, mitochondrial (Q6PE15 whole entry): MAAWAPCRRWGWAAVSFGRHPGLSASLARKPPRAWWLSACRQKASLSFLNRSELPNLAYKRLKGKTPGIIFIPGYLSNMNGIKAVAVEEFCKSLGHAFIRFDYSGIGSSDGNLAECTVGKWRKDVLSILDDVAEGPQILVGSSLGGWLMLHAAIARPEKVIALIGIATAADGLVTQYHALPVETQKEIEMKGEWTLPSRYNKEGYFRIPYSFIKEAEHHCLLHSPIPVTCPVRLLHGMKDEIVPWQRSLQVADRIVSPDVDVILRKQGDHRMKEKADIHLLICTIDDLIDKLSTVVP

One may read the AC50 as the midpoint of the concentration-response curve, whichever way the signal moves. As for `C/C=C/c1ccc([C@H]2[C@H](CO)N[C@H]2CN(CC(C)C)C(=O)c2ccccn2)cc1`, the AC50 in test [1] was 5.62 µM (active).
Take `c1ccc2c(NCCc3c[nH]c4ccccc34)c3ccccc3nc2c1`: the EC50 in test [2] was 7.86 µM (active); in test [3], 4.9 µM (active); in test [4] it was 6.42 µM (inconclusive); in test [6], > 120 µM (not active); in [7] it was 4.86 µM (active); in [8], 8.56 µM (inconclusive). Also, the EC50 in test [9] is 11.9 µM (active); in [10], > 120 µM (not active); in test [13] it was > 350 µM (not active); in test [14], 1.43 µM (active); in test [15] it was 29.3 µM (active). The results for the AC50 in test [5], in test [11] and in [12] were 3.17 µM (active), 1.41 µM (active) and 33.1 µM (active), respectively.
With `CC[C@@]1(c2cccc(C)c2)C(=O)N(C(=O)OC)N1C(=O)OC`, the values for the IC50 in [16], in test [17] and in [18] were 6.22 µM (active), 0.413 µM (active) and 5.96 µM (active), respectively.
Regarding `CC1OC2CC(=O)OC2C2=C1C(=O)c1c(O)cccc1C2=O` (centres undefined), the IC50 in test [19] was 12 µM (inactive); in test [20] it was 2.14 µM (active); in test [21], 38.2 µM (inactive). Moreover, in [22], the EC50 was 21 µM (inactive).
On to `COc1ccccc1N1C(C)=CC(=C(C#N)c2nc3ccccc3s2)C=C1C`, for which the IC50 in test [23] was 4.86 µM (active); in [26], 9.58 µM (active). The AC50 in test [24] is 5.19 µM (active). In test [25], the EC50 was 16.1 µM (active).
With `Oc1c(/C=N/c2ccc(Cl)cc2)cnn1-c1cccc(Cl)n1`, the IC50 is 17.1 µM (active) in test [27] and 15.4 µM (active) in test [28].
Consider `CCOc1cc(-c2cn(S(=O)(=O)c3cccc4nsnc34)nc2N)cc(OCC)c1OCC`, for which the IC50 is > 20 µM (inactive) in test [29] and 21.1 µM (active) in [30]. For the same compound, the EC50 in [25] is > 53 µM (inactive).
Regarding `CCCC(=O)Nc1cccc(NC(=O)c2ccc(C)c([N+](=O)[O-])c2)c1`, the AC50 in test [31] is 1.96 µM (active).
For the compound `CC(O)CC(=O)OC[C@]12CC[C@H]3[C@@](C)(CC[C@H]4C(C)(C)CCC[C@]34C)[C@@H]1CC(C1=CC(=O)OC1O)O2` (some centres undefined), the IC50 is 22 µM (inactive) in test [32], 3.53 µM (active) in test [36] and > 64.6 µM (inactive) in test [37]. In addition, the AC50 in test [33] was 5.5 µM (active); in test [35] it was 3.75 µM (active); in test [38] it was 22.1 µM (active). In test [34], the EC50 is > 89.2 µM (inactive).
